# Measured values from the supplement of paper PMC10307832.
# Assays:
# Assay in all cases: relative viability (nuclei count vs DMSO), 5 days (fraction); higher = more cells survive
# Veliparib + Olaparib = compound: C[C@]1(c2nc3c(C(N)=O)cccc3[nH]2)CCCN1 [Veliparib] + O=C(c1cc(Cc2n[nH]c(=O)c3ccccc23)ccc1F)N1CCN(C(=O)C2CC2)CC1 [Olaparib] (partner 8 µM)
# Summary of the method: (§1)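 After 5 days of treatment, lung cancer cells in 1536-well plates were fixed and stained in a single step (final 0.05% Triton X-100, 1% formaldehyde, 1 ug/ml Hoechst) and their nuclei counted on 4× images. Treatment had been applied by pin tool the day after seeding as one drug alone or as a fixed anchor-drug dose with five library-drug doses (not always all listed) in √10 steps. Relative viability is the nuclei count of treated wells divided by that of vehicle wells, and values are medians of duplicate plates.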
# Veliparib + Tozasertib = compound: C[C@]1(c2nc3c(C(N)=O)cccc3[nH]2)CCCN1 [Veliparib] + Cc1cc(Nc2cc(N3CCN(C)CC3)nc(Sc3ccc(NC(=O)C4CC4)cc3)n2)n[nH]1 [Tozasertib] (partner 0.1 µM)
# Summary of the method: as §1
# [1] = compound: COC1=CC=C(C=C1)CN2C=CC3=C2C=C(C=C3)C(=O)NO + CS(=O)(=O)N1CCN(Cc2cc3nc(-c4cccc5[nH]ncc45)nc(N4CCOCC4)c3s2)CC1 [Pictilisib] (partner 1 µM)
# Summary of the method: as §1
# [2] = compound: COC1=CC=C(C=C1)CN2C=CC3=C2C=C(C=C3)C(=O)NO + COc1cc2c(Oc3ccc(NC(=O)C4(C(=O)Nc5ccc(F)cc5)CC4)cc3F)ccnc2cc1OCCCN1CCOCC1 [Foretinib] (partner 0.25 µM)
# Summary of the method: as §1
Cell Line,relative viability (Veliparib + Olaparib; first compound 0.02 µM),relative viability (Veliparib + Olaparib; first compound 0.6325 µM),relative viability (Veliparib + Olaparib; first compound 2 µM),relative viability (Veliparib + Tozasertib; first compound 0.02 µM),relative viability (Veliparib + Tozasertib; first compound 0.06325 µM),relative viability (Veliparib + Tozasertib; first compound 0.2 µM),relative viability (Veliparib + Tozasertib; first compound 0.6325 µM),relative viability (Veliparib + Tozasertib; first compound 2 µM),relative viability ([1]; first compound 0.253 µM),relative viability ([1]; first compound 0.8 µM),relative viability ([1]; first compound 2.53 µM),relative viability ([1]; first compound 8 µM),relative viability ([2]; first compound 0.253 µM),relative viability ([2]; first compound 0.8 µM),relative viability ([2]; first compound 2.53 µM),relative viability ([2]; first compound 8 µM),relative viability (Veliparib + Olaparib; first compound 0.06325 µM),relative viability (Veliparib + Olaparib; first compound 0.2 µM),relative viability ([1]; first compound 0.08 µM),relative viability ([2]; first compound 0.08 µM)
NCI-H1648,0.948,0.7,0.919,0.723,0.469,0.383,0.405,0.363,,,,,,,,,,,,
NCI-H358,0.673,0.564,0.597,0.121,0.107,0.106,0.106,0.102,0.429,0.422,0.337,0.296,0.684,0.801,0.575,0.57,0.739,0.662,,
IA-LM,0.896,0.678,0.74,,,,,,0.388,0.373,0.371,0.23,1.33,1.08,1.2,1.06,0.702,0.743,0.296,0.997
201T,0.809,0.824,0.83,0.935,0.952,0.961,0.946,0.921,0.716,0.752,0.725,0.683,1.15,1.24,1.06,0.999,0.906,0.852,0.687,1.06
LOU-NH91,0.882,0.876,0.95,0.647,0.684,0.729,0.584,0.746,0.53,0.522,0.528,0.497,0.941,0.915,0.908,0.861,0.901,0.978,0.45,0.899
ChaGo-K-1,0.362,0.387,0.443,0.206,0.217,0.219,0.199,0.24,0.655,0.801,0.706,0.462,0.932,0.898,0.802,0.869,0.447,0.429,,
NCI-H441,0.691,0.598,0.595,0.633,0.608,0.529,0.541,0.683,0.613,0.548,0.572,0.438,1.26,0.943,1.03,0.844,0.637,0.573,0.344,0.933
ABC-1,,0.874,0.586,,0.196,0.137,0.175,0.17,0.761,0.78,0.724,0.662,1.14,1.02,0.935,1.14,,0.8,,
NCI-H661,0.749,0.692,0.741,0.349,0.363,0.336,0.329,0.388,0.358,0.35,0.375,0.318,1.02,1.03,0.999,0.927,0.824,0.712,,
BEN,0.799,0.92,1,0.456,0.558,0.524,0.477,0.481,0.589,0.582,0.544,0.499,0.459,0.454,0.641,0.479,1.15,1.12,0.504,0.604
UMC-11,0.627,0.359,0.438,0.234,0.223,0.231,0.213,0.212,0.82,0.864,0.756,0.748,1.21,1.02,1.05,1,0.336,0.485,0.28,
NCI-H2023,0.486,0.446,0.439,0.518,0.376,0.342,0.431,0.367,0.239,0.227,0.236,0.202,0.899,0.778,0.697,0.722,0.477,0.439,0.105,0.489
NCI-H2126,0.905,0.927,0.865,0.821,0.784,0.842,0.819,0.849,0.496,0.53,0.558,0.443,1.22,1.15,1.2,1.26,0.925,0.913,0.479,1.14
EMC-BAC-2,0.539,0.455,0.495,0.306,0.29,0.339,0.286,0.286,0.549,0.555,0.553,0.466,1.03,0.98,0.977,0.922,0.427,0.483,0.448,0.788
NCI-H838,0.852,0.702,0.764,0.344,0.28,0.285,0.256,0.25,0.464,0.512,0.413,0.399,1.07,1,0.995,0.982,0.729,0.802,,
NCI-H322M,,0.74,0.715,,0.425,0.416,0.499,0.422,0.542,0.544,0.501,0.45,1.03,1.06,0.984,0.882,0.737,0.786,,
HCC-15,0.756,0.686,0.706,0.361,0.356,0.464,0.362,0.354,0.743,0.866,0.833,0.741,1.02,1,1.03,1.01,0.649,0.726,0.522,0.642
NCI-H1395,0.435,0.415,0.471,0.684,0.787,0.754,0.656,0.706,0.653,0.58,0.583,0.505,0.949,0.99,1.04,0.99,0.395,0.448,0.683,0.916
NCI-H596,0.832,0.7,0.738,0.838,0.774,0.99,0.859,0.811,0.408,0.411,0.468,0.409,0.983,0.846,0.895,0.523,0.587,0.75,0.349,0.841

Cell Line,relative viability (Veliparib + Olaparib; first compound 0.02 µM),relative viability (Veliparib + Olaparib; first compound 0.6325 µM),relative viability (Veliparib + Olaparib; first compound 2 µM),relative viability (Veliparib + Tozasertib; first compound 0.02 µM),relative viability (Veliparib + Tozasertib; first compound 0.06325 µM),relative viability (Veliparib + Tozasertib; first compound 0.2 µM),relative viability (Veliparib + Tozasertib; first compound 0.6325 µM),relative viability (Veliparib + Tozasertib; first compound 2 µM),relative viability ([1]; first compound 0.253 µM),relative viability ([1]; first compound 0.8 µM),relative viability ([1]; first compound 2.53 µM),relative viability ([1]; first compound 8 µM),relative viability ([2]; first compound 0.253 µM),relative viability ([2]; first compound 0.8 µM),relative viability ([2]; first compound 2.53 µM),relative viability ([2]; first compound 8 µM),relative viability (Veliparib + Olaparib; first compound 0.06325 µM),relative viability (Veliparib + Olaparib; first compound 0.2 µM),relative viability ([1]; first compound 0.08 µM),relative viability ([2]; first compound 0.08 µM)
PC-3 [JPC-3],1.17,1.06,1.07,0.87,0.902,0.822,0.864,0.845,0.713,0.747,0.805,0.718,1.04,1.09,1.08,0.962,,1.22,0.781,1
NCI-H23,0.34,0.355,0.314,0.38,0.429,0.434,0.381,0.426,0.538,0.49,0.559,0.349,1.17,0.981,0.955,0.853,0.338,0.345,0.275,0.823
SK-MES-1,0.931,0.632,0.686,0.972,0.903,0.843,0.821,0.858,0.384,0.368,0.36,0.332,0.929,0.927,0.98,0.927,0.748,0.77,0.343,1.17
NCI-H1651,0.172,0.173,0.183,0.864,0.654,0.646,0.604,0.545,0.427,0.606,0.65,0.452,0.89,0.709,0.723,0.694,0.197,0.183,0.572,0.646
SK-LU-1,0.492,0.364,0.424,0.366,0.32,0.37,0.344,0.343,0.586,0.613,0.517,0.505,0.766,0.799,0.86,0.74,0.415,0.491,0.468,0.756
NCI-H727,0.601,0.665,0.748,0.672,0.648,0.573,0.495,0.654,0.299,0.553,0.306,0.488,0.951,1.31,0.819,0.836,0.549,0.739,0.344,0.792
NCI-H3122,0.628,0.619,0.623,0.439,0.428,0.453,0.383,0.395,0.629,0.652,0.577,0.518,1,0.913,0.993,0.947,0.571,0.549,0.571,0.942
NCI-H1703,0.514,0.56,0.501,,,,,,0.259,0.221,0.256,0.147,0.374,0.385,0.368,0.307,0.292,0.397,,
EBC-1,0.748,0.655,0.756,,,,,,0.514,0.401,0.424,0.338,0.0996,0.0919,0.102,0.113,0.622,0.731,0.351,0.0855
NCI-H1792,0.693,0.411,0.397,,,,,,0.314,0.297,0.326,0.209,,,,,0.311,0.68,0.301,
NCI-H522,0.678,0.57,0.566,0.628,0.579,0.508,0.598,0.545,,,,,,,,,0.593,0.667,,
A549,0.308,0.314,0.407,,,,,,0.585,0.504,0.502,0.472,0.965,0.948,0.952,0.987,0.375,0.223,0.446,0.802
NCI-H1563,,,,,,,,,0.656,0.645,0.706,0.618,0.897,0.888,0.928,0.892,,,0.547,0.762
HCC-44,1.02,0.932,1,1.04,,1.15,0.956,0.919,0.746,0.616,0.568,0.547,,,,,0.924,0.975,0.547,
NCI-H2342,0.383,0.41,0.474,0.498,0.573,0.421,0.504,0.508,,,,,0.986,0.978,0.956,1.02,0.461,0.469,,0.997
NCI-H1623,,,,,0.439,0.428,0.461,0.444,,,,,0.82,0.866,0.859,0.766,,,,0.649
SW 900,,0.722,0.818,,,0.636,0.533,0.586,,,,,0.822,0.908,0.828,0.719,0.724,0.939,,0.746
NCI-H1299,1.03,0.963,1.03,,,,,,1.03,0.77,0.658,0.593,1.1,1.15,1.09,1.05,0.949,0.925,0.834,1.09
Calu-6,0.646,0.491,0.664,,,,,,0.946,0.981,0.969,0.826,0.853,0.851,0.889,0.725,0.565,0.606,0.426,0.419
